Patent US7705053B2, “Benzamide derivative” (Chugai Seiyaku Kabushiki Kaisha, priority 2003, dated 2010)
pIC50: −log10 of the molar value.

Key:
[1] = test system: Human umbilical vein endothelial cells (HUVEC); experiment: Cell proliferation assay (HUVEC); format: cell-based; conditions: 72 hours, WST-1, read-out: 50% growth inhibition concentration (IC50 value) HUVEC
Method: (§1) The test compound was serially diluted with DMSO, and then diluted 1:50 with a Ca^2+,Mg^2+-free phosphate-buffered physiological saline. The resulting dilution (10 μl) was dispensed into a 96-well plate. Human umbilical vein endothelial cells (HUVEC, purchased from Clonetics) were suspended in PRMI 1640 medium supplemented with 10% bovine fetal serum, 30 μg/mL vascular endothelial cell growth supplement, and 50 μg/mL heparin. Human lung carcinoma cell line Calu-6 was suspended in MEM medium supplemented with 10% bovine fetal serum, 0.1 mM nonessential amino acid, and 1 mM sodium pyruvate. Each cell suspension (190 μL) was dispensed into the plate containing the test compound such that the cell count per well was 3,000 cells. The plate was incubated in a CO2 incubator (37° C., 5% CO2). After 72 hours, 20 μL WST-1 (produced by Roche Diagnostics) was added to each well and, after 2 hours of incubation, the absorbance at 450 nm (reference wavelength: 650 nm) was measured. The 50% growth inhibition concentration (IC50 value) of the test compound was calculated from the inhibition rate obtained when the test compound was added, in comparison with the reference value obtained when the test compound was not added.
(§2) The IC50 values, for HUVEC and Calu-6, of representative examples of the compounds of the present invention are shown in Table 1.

[2] = test system: Human lung carcinoma cell line Calu-6; experiment: Cell proliferation assay (Calu-6); format: cell-based; conditions: Calu-6, 72 hours, WST-1, read-out: 50% growth inhibition concentration (IC50 value) Calu-6
Method: as §1, §2

HUVEC = experiment: Tube formation assay; format: cell-based; conditions: Homo sapiens, 264 h, 11 days of incubation, CD31 staining, read-out: capillary-like tube formation inhibition rates (%)
Method: An angiogenesis measurement kit (produced by KURABO) was charged with the test compound at final concentration of 20 μM, and incubated in a CO2 incubator (37° C., 5%). After 11 days of incubation, capillary-like tubes formed were fixed with 70% ethanol and visualized with a CD31 staining kit (produced by KURABO). Under a microscope, stain images of the wells were photographed, stored as an image file, and measured for the area of capillary-like tube formation by use of angiogenesis quantitative determination software of KURABO. The inhibition rates (%) of the test compound-charged wells were calculated, with the control taken as 100%.
The capillary-like tube formation inhibiting rates at 20 μM, against HUVEC, of representative examples of the compounds of the present invention are shown in Table 2.

[3] = test system: human lung carcinoma cell line Calu-6; experiment: Antitumor test (Calu-6 xenograft); format: in vivo, Balb/c nude mice; conditions: 600 mg/kg, orally once daily for 11 days, mice
Method: (§3) A cell suspension of human lung carcinoma cell line Calu-6 was prepared using Hanks' balanced salt solution, and 5.0×10^6 of the cells were implanted subcutaneously in the flank region of female Balb/c nude mice. When the volume of the tumor reached 200 to 250 mm^3, the test compound was orally administered once daily for 11 days. The tumor volume was calculated from the equation π/6×(long diameter×short diameter×thickness). The tumor growth inhibition rate was calculated from changes in the tumor volume in the test compound treatment group relative to changes in the tumor volume in the control group.
(§4) The results of the antitumor test of compound 1-1-1 and compound 2-1-1, as representative examples of the compounds of the present invention, are shown in FIGS. 1-(A) and 1-(B) and 2-(A) and 2-(B).

[4] = test system: blood vessels in the tumor tissue (Calu-6 xenograft); experiment: Measurement of the number of blood vessels in the tumor; format: in vivo, Balb/c nude mice; conditions: 600 mg/kg, orally once daily for 11 days, mice, relative to control group
Description: Measurement of the Number of Blood Vessels in the Tumor
5.0×10^6 Cells of human lung carcinoma cell line Calu-6 were implanted subcutaneously in the flank region of female Balb/c nude mice. When the volume of tumor reached 200 to 250 mm^3, the test compound was orally administered once daily for 11 days. Twenty-four hours after the final administration, xenograft tissue was removed from the mice, and a middle portion of the long diameter of the tumor was embedded, as a block 2 to 3 mm thick, in O.C.T. Compound, and preserved as a frozen tissue specimen. Frozen sections were prepared, and blood vessels in the tumor tissue were stained by an immunohistological method using anti-mouse CD31 antibody. The stained tissue was photographed under a microscope, and the images were stored as an image file. The number of the stained blood vessels was measured by Image Pro (Promega). The decrease rate of blood vessel density was calculated as a decrease rate relative to the blood vessel density in the control group.
The decrease rates of the blood vessel density in the tumor tissue following treatment with 600 mg/kg of compound 1-1-1 and compound 2-1-1, as representative examples of the compounds of the present invention, are shown in Table 3.

[5] = Body weight and toxicity findings in the antitumor test; format: in vivo; conditions: 600 mg/kg, orally once daily for 11 days
Method: as §3, §4

| pIC50 [2] | Compound | pIC50 [1] | inhibition at 20 µM (HUVEC) [%] | tumor growth inhibition rates (TGI) [3] [%] | Decrease (%) in intratumor blood vessel density [4] [%] | body weights of the mice [5] | findings of toxicity [5] |
| --- | --- | --- | --- | --- | --- | --- | --- |
| < 4.00 | COc1ccc(C(N)=O)cc1C(=O)Nc1ccc(OC(F)(F)F)cc1 [Compound 1-2-1, 3-N-(4-trifluoromethoxyphenyl)-4-methoxyisophthalamide] | 5.62 | 68 | – | – | – | – |
| < 4.30 | COc1ccc(C(N)=O)cc1C(=O)Nc1ccccc1OC(F)(F)F [Compound 1-3-5, 4-methoxy-3-N-(2-trifluoromethoxyphenyl)-isophthalamide] | 6.85 | 91 | – | – | – | – |
| < 4.30 | COc1ccc(C(N)=O)cc1C(=O)Nc1cccc2c1CCCC2 [Compound 1-3-6, 4-methoxy-3-N-(5,6,7,8-tetrahydronaphthalen-1-yl)isophthalamide] | 6.62 | 46 | – | – | – | – |
| < 4.30 | COc1ccc(C(N)=O)cc1C(=O)Nc1ccccc1Cl [Compound 1-3-7, 3-N-(2-chlorophenyl)-4-methoxyisophthalamide] | 6.55 | 67 | – | – | – | – |
| < 4.30 | COc1ccc(C(N)=O)cc1C(=O)Nc1cccc(C(F)(F)F)c1F [Compound 1-3-8, 3-N-(2-fluoro-3-trifluoromethylphenyl)-4-methoxyisophthalamide] | 6.46 | – | – | – | – | – |
| < 4.30 | COc1ccc(C(N)=O)cc1C(=O)Nc1ccccc1F [Compound 1-3-12, 3-N-(2-fluorophenyl)-4-methoxyisophthalamide] | 5.60 | 27 | – | – | – | – |
| < 4.30 | COc1ccc(C(N)=O)cc1C(=O)Nc1cc(C(F)(F)F)ccc1Cl [Compound 1-3-16, 3-N-(2-chloro-5-trifluoromethylphenyl)-4-methoxyisophthalamide] | 5.34 | 80 | – | – | – | – |
| < 4.60 | COc1ccc(C(N)=O)cc1C(=O)Nc1cc(C)c(F)cc1Cl [Compound 1-3-17, 3-N-(2-chloro-4-fluoro-5-methylphenyl)-4-methoxyisophthalamide] | 5.92 | 80 | – | – | – | – |
| < 4.30 | COc1cc(NC(=O)c2cc(C(N)=O)ccc2OC)cc(OC)c1 [Compound 1-3-18, 3-N-(3,5-dimethoxyphenyl)-4-methoxyisophthalamide] | 5.90 | 29 | – | – | – | – |
| < 4.30 | COc1ccc(C(N)=O)cc1C(=O)Nc1ccc(C(F)(F)F)cc1 [Compound 1-3-21, 4-methoxy-3-N-(4-trifluoromethylphenyl)isophthalamide] | 5.29 | 71 | – | – | – | – |
| < 4.30 | COc1ccc(C(N)=O)cc1C(=O)Nc1ccc(F)cc1F [Compound 1-3-24, 3-N-(2,4-difluorophenyl)-4-methoxyisophthalamide] | 5.28 | 28 | – | – | – | – |
| < 4.60 | COc1ccc(C(N)=O)cc1C(=O)Nc1cccc2ncccc12 [Compound 1-3-39, 4-methoxy-3-N-quinolin-5-yl-isophthalamide] | 5.63 | 20 | – | – | – | – |
| < 4.30 | CNC(=O)c1ccc(OC)c(/C=C/c2ccc(OC(F)(F)F)cc2)c1 [Compound 2-2-2, 4-methoxy-N-methyl-3-[(E)-2-(4-trifluoromethoxyphenyl)-vinyl]-benzamide] | 5.64 | 77 | – | – | – | – |
| < 4.60 | CCNC(=O)c1ccc(OC)c(/C=C/c2ccc(Cl)cc2)c1 [Compound 2-2-9, 3-[(E)-2-(4-chlorophenyl)-vinyl]-N-ethyl-4-methoxy-benzamide] | 5.85 | 79 | – | – | – | – |

More lines, now with the values behind:

| Compound | pIC50 [2] | pIC50 [1] | inhibition at 20 µM (HUVEC) [%] | tumor growth inhibition rates (TGI) [3] [%] | Decrease (%) in intratumor blood vessel density [4] [%] | body weights of the mice [5] | findings of toxicity [5] |
| --- | --- | --- | --- | --- | --- | --- | --- |
| COc1ccc(C(N)=O)cc1C(=O)Nc1ccc(Cl)cc1 [Compound 1-1-1, 3-N-(4-chlorophenyl)-4-methoxyisophthalamide] | < 4.00 | 5.64 | 43 | 82 | 44 | no decreases in the body weights of the mice were observed | no findings of toxicity observed |
| COc1ccc(C(N)=O)cc1C(=O)Nc1ccc(Br)cc1F [Compound 1-3-1, 3-N-(4-bromo-2-fluorophenyl)-4-methoxy-isophthalamide] | < 4.30 | 6.72 | – | – | – | – | – |
| COc1ccc(C(N)=O)cc1C(=O)Nc1cccc(Cl)c1Cl [Compound 1-3-2, 3-N-(2,3-dichlorophenyl)-4-methoxyisophthalamide] | < 4.30 | 6.82 | – | – | – | – | – |
| COc1ccccc1NC(=O)c1cc(C(N)=O)ccc1OC [Compound 1-3-10, 4-methoxy-3-N-(2-methoxyphenyl)isophthalamide] | < 4.30 | 6.12 | 46 | – | – | – | – |
| COc1ccc(C(N)=O)cc1C(=O)Nc1ccccc1C [Compound 1-3-23, 4-methoxy3-N-o-tolylisophthalamide] | < 4.30 | 5.55 | 27 | – | – | – | – |
| COc1ccc(C(N)=O)cc1C(=O)Nc1ccc(Br)cc1Cl [Compound 1-3-41, 3-N-(4-bromo-2-chlorophenyl)-4-methoxyisophthalamide] | < 4.30 | 7.40 | 82 | – | – | – | – |
| COc1ccc(C(N)=O)cc1C(=O)Nc1ccc(Br)cc1Br [Compound 1-3-45, 3-N-(2,4-dibromophenyl)-4-methoxyisophthalamide] | < 4.30 | 7.30 | 31 | – | – | – | – |
| COc1ccc(C(N)=O)cc1/C=C/c1ccc(OC(F)(F)F)cc1 [Compound 2-1-1, 4-methoxy-3-[(E)-2-(4-trifluoromethoxyphenyl)vinyl]benzamide] | < 4.00 | 6.77 | 93 | 75 | 37 | no decreases in the body weights of the mice were observed | no findings of toxicity observed |
| COc1ccc(C(=O)NC2CCCC2)cc1/C=C/c1ccc(OC(F)(F)F)cc1 [Compound 2-2-1, N-cyclopentyl-4-methoxy-3-[(E)-2-(4-trifluoromethoxy-phenyl)vinyl]benzamide] | < 4.30 | 5.47 | 60 | – | – | – | – |
